Among the data in patent EP1976513B1 (priority 2006, dated 2007) are IC50 values, retold here.

Each structure is given as a SMILES string.

What is called IC50 is the concentration needed to halve the response being measured.

In one assay the target is T1, human dopamine reuptake transporter (Homo sapiens, UniProt Q01959).
T1 construct: expressed in transfected cells; host or cells: CHO-K1 or HEK293
T1 sequence (Q01959 whole entry): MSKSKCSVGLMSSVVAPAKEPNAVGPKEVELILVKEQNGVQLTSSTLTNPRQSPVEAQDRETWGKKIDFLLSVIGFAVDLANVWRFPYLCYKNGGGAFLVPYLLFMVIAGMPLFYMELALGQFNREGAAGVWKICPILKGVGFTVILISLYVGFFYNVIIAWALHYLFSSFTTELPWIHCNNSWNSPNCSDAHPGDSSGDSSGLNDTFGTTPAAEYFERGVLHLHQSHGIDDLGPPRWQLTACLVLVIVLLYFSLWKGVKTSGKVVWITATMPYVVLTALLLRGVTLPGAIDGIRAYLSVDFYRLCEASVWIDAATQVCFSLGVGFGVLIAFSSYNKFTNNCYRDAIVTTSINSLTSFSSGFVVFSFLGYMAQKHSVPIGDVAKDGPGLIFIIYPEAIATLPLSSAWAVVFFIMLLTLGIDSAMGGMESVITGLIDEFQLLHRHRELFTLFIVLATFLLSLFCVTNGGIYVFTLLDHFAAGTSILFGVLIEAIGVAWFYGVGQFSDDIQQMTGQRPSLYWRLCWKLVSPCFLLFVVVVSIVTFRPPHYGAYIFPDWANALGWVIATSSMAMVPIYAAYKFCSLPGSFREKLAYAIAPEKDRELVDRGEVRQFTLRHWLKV
Briefly: cell-based. The conditions noted are these: Human IC50 (nM) hDAT.
For `CSc1ccc(C2(CN(C)C)CCCCC2)cc1` [Compound 52, N,N-dimethyl-1-(1-(4-(methylthio)phenyl)cyclohexyl)methanamine], half-maximal inhibition (IC50) required 176 nM.

Staying with this assay, now noted: recombinant human dopamine transporter (DAT); read-out: Human IC50 (nM) hDAT.
In the case of `CNCC1(c2ccc(Cl)cc2Cl)CCCCC1` [Compound 65, 1-(1-(2,4-dichlorophenyl)cyclohexyl)-N-methylmethanamine], the IC50 came out at 1940 nM.

In the case of `CN(C)CC1(c2ccc(Cl)cc2Cl)CCCCC1` [Compound 66, 1-(1-(2,4-dichlorophenyl)cyclohexyl)-N,N-dimethylmethanamine], the IC50 is 355 nM.

Regarding `CNCC1(c2ccc3cc(F)ccc3c2)CCCCC1` [Compound 67, 1-(1-(6-fluoronaphthalen-2-yl)cyclohexyl)-N-methylmethanamine], the half-maximal inhibitory concentration (IC50) stood at 1760 nM.

Regarding `CN(C)CC1(c2ccc3cc(F)ccc3c2)CCCCC1` [Compound 68, 1-(1-(6-fluoronaphthalen-2-yl)cyclohexyl)-N,N-dimethylmethanamine], the IC50 was determined as 343 nM.

On to `CNCC1(c2ccc(F)c3ccccc23)CCCCC1` [Compound 69, 1-(1-(4-fluoronaphthalen-1-yl)cyclohexyl)-N-methylmethanamine], for which the IC50 came out at 605 nM.

For the molecule `CN(C)CC1(c2ccc(F)c3ccccc23)CCCCC1` [Compound 70, 1-(1-(4-fluoronaphthalen-1-yl)cyclohexyl)-N,N-dimethylmethanamine], the half-maximal inhibitory concentration (IC50) was 214 nM.

As to `CN(C)CC1(c2ccc(Cl)c(Cl)c2)CC=CCC1` (centres unmarked) [Compound 72, 1-(1-(3,4-dichlorophenyl)cyclohex-3-enyl)-N,N-dimethylmethanamine], the IC50 is 1.7 nM.

For `NCC1(c2ccc(Cl)c(Cl)c2)CCCC1` [Compound 87, (1-(3,4-dichlorophenyl)cyclopentyl)methanamine], the concentration for half-maximal inhibition (IC50) amounted to 139 nM.

As for `CNCC1(c2ccc(Cl)c(Cl)c2)CCCC1` [Compound 88, (1-(3,4-dichlorophenyl)cyclopentyl)-N-methylmethanamine], the 50% inhibitory concentration (IC50) was 93 nM.

Take `CNCC1(c2ccc(F)cc2)CCCCC1` [Compound 90, 1-(1-(4-fluorophenyl)cyclohexyl)-N-methylmethanamine]: the half-inhibitory concentration (IC50) was found to be 3360 nM.

As for `NCC1(c2ccc(F)cc2)CCCCC1` [Compound 91, (1-(4-fluorophenyl)cyclohexyl)methaneamine], the IC50 worked out at 1830 nM.

Turning to `CNCC1(c2ccc(Cl)c(F)c2)CCCCC1` [Compound 95, (1-(4-chloro-3-fluorophenyl)cyclohexyl)-N-methylmethanamine], the IC50 turned out to be 324 nM.

On to `NCC1(c2ccc(Cl)c(F)c2)CCCCC1` [Compound 98, (1-(4-chloro-3-fluorophenyl)cyclohexyl)-methanamine], for which the half-maximal inhibitory concentration (IC50) is 419 nM.

With `CNCC1(c2ccc(C(F)(F)F)cc2)CCCCC1` [Compound 100, N-methyl-1-(1-(4-(trifluoromethyl)phenyl)-cyclohexyl)methanamine], the IC50 came to 3410 nM.

Take `CN(C)CC1(c2ccc3c(c2)OCO3)CCCCC1` [Compound 102, 1-(1-(benzo[d][1,3]dioxol-5-yl)cyclohexyl)-N,N-dimethylmethanamine]: the IC50 was found to be 420 nM.

Turning to `CNCC1(c2ccc3c(c2)OCO3)CCCCC1` [Compound 103, 1-(1-(benzo[d][1,3]dioxol-5-yl)cyclohexyl)-N-methylmethanamine], the IC50 was 7740 nM.

Consider `CNCC1(c2ccc(Cl)c(Cl)c2)CC=CC1` [Compound 168, 1-(1-(3,4-dichlorophenyl)cyclopent-3-enyl)-N-methylmethanamine], for which the concentration for half-maximal inhibition (IC50) was 108 nM.

For the molecule `NCC1(c2ccc(Cl)c(Cl)c2)CCCC(F)(F)C1` (centres unmarked) [Compound 204, (1-(3,4-dichlorophenyl)-3,3-difluorocyclohexyl)-methanamine], the IC50 worked out at 296 nM.

For the molecule `NCC1(c2ccc3ccccc3c2)CCC(O)CC1` (centres unmarked) [Compound 207, 4-(aminomethyl)-4-(naphthalen-2-yl)cyclohexanol], the IC50 came out at 1020 nM.

As for `NCC1(c2ccc3ccccc3c2)CCC(O)CC1` (centres unmarked) [Compound 208, 4-(aminomethyl)-4-(naphthalen-2-yl)cyclohexanol], the IC50 came to 7670 nM.

In the case of `NCC1(c2ccc3ccccc3c2)CCC(Cl)CC1` (centres unmarked) [Compound 211, (4-chloro-1-(naphthalen-2-yl)cyclohexyl)methanamine], the IC50 is 195 nM.

In the case of `NCC1(c2ccc3ccccc3c2)CCC(F)CC1` (centres unmarked) [Compound 212, (4-fluoro-1-(naphthalen-2-yl)cyclohexyl)methanamine], the IC50 came out at 75 nM.

As to `NCC1(c2ccc3ccccc3c2)CCC(F)CC1` (centres unmarked) [Compound 213, (4-fluoro-1-(naphthalen-2-yl)cyclohexyl)methanamine], the IC50 came to 337 nM.

For `NCC1(c2ccc3c(c2)OCO3)CCC(O)CC1` (centres unmarked) [Compound 214, 4-(aminomethyl)-4-(benzo[d][1,3]dioxol-5-yl)cyclohexanol], the 50% inhibitory concentration (IC50) was > 10000 nM.

In the case of `CC1(O)CCC(CN)(c2ccc3c(c2)OCO3)CC1` (centres unmarked) [Compound 215, 4-(aminomethyl)-4-(benzo[d][1,3]dioxol-5-yl)-1-methylcyclohexanol], the 50% inhibitory concentration (IC50) was found to be 6240 nM.

Consider `CC1(O)CCC(CN)(c2ccc3c(c2)OCO3)CC1` (centres unmarked) [Compound 216, 4-(aminomethyl)-4-(benzo[d][1,3]dioxol-5-yl)-1-methylcyclohexanol], for which the IC50 was > 10000 nM.

For `NCC1(c2ccc3ccccc3c2)CCC(O)(CF)CC1` (centres unmarked) [Compound 217, 4-(aminomethyl)-1-(fluoromethyl)-4-(naphthalen-2-yl)cyclohexanol], the IC50 was found to be 1970 nM.

`NCC1(c2ccc3ccccc3c2)CCC(O)(CF)CC1` (centres unmarked) [Compound 218, 4-(aminomethyl)-1-(fluoromethyl)-4-(naphthalen-2-yl)cyclohexanol]: the IC50 is 5590 nM.

In the case of `NCC1(c2ccc(OC(F)(F)F)cc2)CCC(O)CC1` (centres unmarked) [Compound 220, 4-(aminomethyl)-4-(4-(trifluoromethoxy)phenyl)cyclohexanol], the IC50 is > 10000 nM.

`NCC1(c2ccc3ccccc3c2)CCC(F)(F)CC1` [Compound 221, (4,4-difluoro-1-(naphthalen-2-yl)cyclohexyl)methanamine]: the half-inhibitory concentration (IC50) turned out to be 182 nM.

The target in a further assay is human serotonin reuptake transporter (Homo sapiens, UniProt P31645). Description: cell-based. The settings on record: Human IC50 (nM) hSERT.
Chain of human serotonin reuptake transporter (P31645 whole entry): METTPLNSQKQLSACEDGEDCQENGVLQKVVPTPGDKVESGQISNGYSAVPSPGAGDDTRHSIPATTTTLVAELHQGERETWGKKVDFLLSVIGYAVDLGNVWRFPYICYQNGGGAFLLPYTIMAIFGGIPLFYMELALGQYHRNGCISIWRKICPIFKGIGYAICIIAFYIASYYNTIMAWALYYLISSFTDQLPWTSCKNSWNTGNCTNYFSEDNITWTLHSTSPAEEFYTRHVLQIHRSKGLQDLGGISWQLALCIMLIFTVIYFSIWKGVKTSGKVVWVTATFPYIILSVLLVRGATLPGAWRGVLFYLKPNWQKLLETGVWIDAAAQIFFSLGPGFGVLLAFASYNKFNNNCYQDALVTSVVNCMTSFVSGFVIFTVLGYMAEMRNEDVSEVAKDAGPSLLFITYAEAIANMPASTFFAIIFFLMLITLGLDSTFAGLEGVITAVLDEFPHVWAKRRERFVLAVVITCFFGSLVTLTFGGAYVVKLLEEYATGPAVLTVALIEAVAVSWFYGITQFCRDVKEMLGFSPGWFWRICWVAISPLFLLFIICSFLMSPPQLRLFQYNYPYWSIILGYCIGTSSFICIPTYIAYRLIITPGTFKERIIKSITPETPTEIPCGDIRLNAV
`CN(C)CC1(c2ccc(Cl)c(Cl)c2)CC=CCC1` (centres unmarked) [Compound 72, 1-(1-(3,4-dichlorophenyl)cyclohex-3-enyl)-N,N-dimethylmethanamine] gave an IC50 of 136 nM.

For `CNCC1(c2ccc(Cl)c(Cl)c2)CCCC1` [Compound 88, (1-(3,4-dichlorophenyl)cyclopentyl)-N-methylmethanamine], the concentration for half-maximal inhibition (IC50) was found to be 829 nM.

Staying with this assay, now noted: Human IC50 (nM) hSERT, recombinant human serotonin transporter (SERT).
Take `CNCC1(c2ccc(Cl)cc2Cl)CCCCC1` [Compound 65, 1-(1-(2,4-dichlorophenyl)cyclohexyl)-N-methylmethanamine]: the IC50 was found to be 1620 nM.

As to `CN(C)CC1(c2ccc(Cl)cc2Cl)CCCCC1` [Compound 66, 1-(1-(2,4-dichlorophenyl)cyclohexyl)-N,N-dimethylmethanamine], the 50% inhibitory concentration (IC50) was found to be 221 nM.

Turning to `CNCC1(c2ccc3cc(F)ccc3c2)CCCCC1` [Compound 67, 1-(1-(6-fluoronaphthalen-2-yl)cyclohexyl)-N-methylmethanamine], the concentration for half-maximal inhibition (IC50) worked out at 230 nM.

On to `NCC1(c2ccc(Cl)c(Cl)c2)CCCC1` [Compound 87, (1-(3,4-dichlorophenyl)cyclopentyl)methanamine], for which the 50% inhibitory concentration (IC50) was 1470 nM.

Turning to `CNCC1(c2ccc(F)cc2)CCCCC1` [Compound 90, 1-(1-(4-fluorophenyl)cyclohexyl)-N-methylmethanamine], the concentration for half-maximal inhibition (IC50) stood at 839 nM.

Consider `NCC1(c2ccc(F)cc2)CCCCC1` [Compound 91, (1-(4-fluorophenyl)cyclohexyl)methaneamine], for which the IC50 is > 10000 nM.

Turning to `CNCC1(c2ccc(Cl)c(F)c2)CCCCC1` [Compound 95, (1-(4-chloro-3-fluorophenyl)cyclohexyl)-N-methylmethanamine], the IC50 was 480 nM.

In the case of `NCC1(c2ccc(Cl)c(F)c2)CCCCC1` [Compound 98, (1-(4-chloro-3-fluorophenyl)cyclohexyl)-methanamine], the 50% inhibitory concentration (IC50) was > 10000 nM.

Regarding `CNCC1(c2ccc(C(F)(F)F)cc2)CCCCC1` [Compound 100, N-methyl-1-(1-(4-(trifluoromethyl)phenyl)-cyclohexyl)methanamine], the IC50 is 1500 nM.

As for `CN(C)CC1(c2ccc3c(c2)OCO3)CCCCC1` [Compound 102, 1-(1-(benzo[d][1,3]dioxol-5-yl)cyclohexyl)-N,N-dimethylmethanamine], the concentration for half-maximal inhibition (IC50) was found to be 195 nM.

With `CNCC1(c2ccc3c(c2)OCO3)CCCCC1` [Compound 103, 1-(1-(benzo[d][1,3]dioxol-5-yl)cyclohexyl)-N-methylmethanamine], the half-inhibitory concentration (IC50) was determined as 3540 nM.

As for `CNCC1(c2ccc(Cl)c(Cl)c2)CC=CC1` [Compound 168, 1-(1-(3,4-dichlorophenyl)cyclopent-3-enyl)-N-methylmethanamine], the IC50 worked out at 1470 nM.

For `NCC1(c2ccc(Cl)c(Cl)c2)CCCC(F)(F)C1` (centres unmarked) [Compound 204, (1-(3,4-dichlorophenyl)-3,3-difluorocyclohexyl)-methanamine], the half-maximal inhibitory concentration (IC50) came out at 2250 nM.

Still in this assay, the particulars now being: recombinant human serotonin transporter (SERT); read-out: Human IC50 (nM) hSERT.
On to `CSc1ccc(C2(CN(C)C)CCCCC2)cc1` [Compound 52, N,N-dimethyl-1-(1-(4-(methylthio)phenyl)cyclohexyl)methanamine], for which the IC50 came to 44 nM.

Take `CN(C)CC1(c2ccc3cc(F)ccc3c2)CCCCC1` [Compound 68, 1-(1-(6-fluoronaphthalen-2-yl)cyclohexyl)-N,N-dimethylmethanamine]: the IC50 was found to be 19 nM.

On to `CNCC1(c2ccc(F)c3ccccc23)CCCCC1` [Compound 69, 1-(1-(4-fluoronaphthalen-1-yl)cyclohexyl)-N-methylmethanamine], for which the IC50 was determined as 930 nM.

Take `CN(C)CC1(c2ccc(F)c3ccccc23)CCCCC1` [Compound 70, 1-(1-(4-fluoronaphthalen-1-yl)cyclohexyl)-N,N-dimethylmethanamine]: the IC50 worked out at 29 nM.

As to `NCC1(c2ccc3ccccc3c2)CCC(O)CC1` (centres unmarked) [Compound 207, 4-(aminomethyl)-4-(naphthalen-2-yl)cyclohexanol], the IC50 was found to be 142 nM.

`NCC1(c2ccc3ccccc3c2)CCC(O)CC1` (centres unmarked) [Compound 208, 4-(aminomethyl)-4-(naphthalen-2-yl)cyclohexanol]: the half-maximal inhibitory concentration (IC50) was 1990 nM.

Take `NCC1(c2ccc3ccccc3c2)CCC(Cl)CC1` (centres unmarked) [Compound 211, (4-chloro-1-(naphthalen-2-yl)cyclohexyl)methanamine]: the 50% inhibitory concentration (IC50) turned out to be 55 nM.

In the case of `NCC1(c2ccc3ccccc3c2)CCC(F)CC1` (centres unmarked) [Compound 212, (4-fluoro-1-(naphthalen-2-yl)cyclohexyl)methanamine], the IC50 came out at 91 nM.

As for `NCC1(c2ccc3ccccc3c2)CCC(F)CC1` (centres unmarked) [Compound 213, (4-fluoro-1-(naphthalen-2-yl)cyclohexyl)methanamine], the IC50 came to 283 nM.

With `NCC1(c2ccc3c(c2)OCO3)CCC(O)CC1` (centres unmarked) [Compound 214, 4-(aminomethyl)-4-(benzo[d][1,3]dioxol-5-yl)cyclohexanol], the IC50 was > 10000 nM.

As to `CC1(O)CCC(CN)(c2ccc3c(c2)OCO3)CC1` (centres unmarked) [Compound 215, 4-(aminomethyl)-4-(benzo[d][1,3]dioxol-5-yl)-1-methylcyclohexanol], the IC50 came out at 4190 nM.

Take `CC1(O)CCC(CN)(c2ccc3c(c2)OCO3)CC1` (centres unmarked) [Compound 216, 4-(aminomethyl)-4-(benzo[d][1,3]dioxol-5-yl)-1-methylcyclohexanol]: the concentration for half-maximal inhibition (IC50) was > 10000 nM.

On to `NCC1(c2ccc3ccccc3c2)CCC(O)(CF)CC1` (centres unmarked) [Compound 217, 4-(aminomethyl)-1-(fluoromethyl)-4-(naphthalen-2-yl)cyclohexanol], for which the 50% inhibitory concentration (IC50) is 47 nM.

As to `NCC1(c2ccc3ccccc3c2)CCC(O)(CF)CC1` (centres unmarked) [Compound 218, 4-(aminomethyl)-1-(fluoromethyl)-4-(naphthalen-2-yl)cyclohexanol], the IC50 turned out to be 480 nM.

Regarding `NCC1(c2ccc(OC(F)(F)F)cc2)CCC(O)CC1` (centres unmarked) [Compound 220, 4-(aminomethyl)-4-(4-(trifluoromethoxy)phenyl)cyclohexanol], the IC50 is 6150 nM.

With `NCC1(c2ccc3ccccc3c2)CCC(F)(F)CC1` [Compound 221, (4,4-difluoro-1-(naphthalen-2-yl)cyclohexyl)methanamine], the 50% inhibitory concentration (IC50) came to 61 nM.
